From ChEMBL document CHEMBL4184219, “Binding-Site Compatible Fragment Growing Applied to the Design of β2-Adrenergic Receptor Ligands” (J Med Chem, 2018) come the findings set out here.

For test [1], the target named is T1, Beta-2 adrenergic receptor (Homo sapiens, UniProt P07550). Put plainly: Displacement of [3H]-DHA from Nb69-fused beta2 adrenergic receptor (unknown origin) expressed in Sf9 cell membranes after 2 hrs by microbeta scintillation counting method. For orientation: Displacement assays read how much labelled ligand stays bound in the presence of the test substance.

Test [2] concerns the target T1, Beta-2 adrenergic receptor. Put plainly: Ratio of Ki for Nb69-fused beta2 adrenergic receptor (unknown origin) to Ki for Nb80-fused beta2 adrenergic receptor (unknown origin).
Test [3] has as its target T1, Beta-2 adrenergic receptor. The test is described as follows: Displacement of [3H]-DHA from Nb80-fused beta2 adrenergic receptor (unknown origin) expressed in Sf9 cell membranes after 2 hrs by microbeta scintillation counting method.

T1 sequence (P07550 whole entry, looked up, the tested form may be a part): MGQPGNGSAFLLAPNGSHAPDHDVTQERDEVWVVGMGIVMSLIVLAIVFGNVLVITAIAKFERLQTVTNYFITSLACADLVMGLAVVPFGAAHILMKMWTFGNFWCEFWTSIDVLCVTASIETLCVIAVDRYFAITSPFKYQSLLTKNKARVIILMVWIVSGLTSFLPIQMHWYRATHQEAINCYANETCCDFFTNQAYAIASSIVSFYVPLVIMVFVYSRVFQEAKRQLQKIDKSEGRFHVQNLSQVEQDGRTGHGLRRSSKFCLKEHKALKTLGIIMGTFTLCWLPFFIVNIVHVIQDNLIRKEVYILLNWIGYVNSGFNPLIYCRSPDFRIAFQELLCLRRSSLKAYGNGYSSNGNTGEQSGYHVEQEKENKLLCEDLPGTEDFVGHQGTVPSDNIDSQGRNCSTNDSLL

Take `CC(NC1CC(c2ccc(F)cc2)C1)c1ccc(Cl)cc1` (centres undefined): the Ki – broadly, a dissociation constant, usually derived from enzyme kinetics or from competition with a known ligand – in test [1] came out at 74 µM; in test [3], 7.89 µM. In test [2], the Ratio Ki amounted to 9.4.

In the case of `CC(N)c1ccc(Cl)cc1` (centres undefined), the Ki in test [1] was above 1000 µM; in test [3], 33.8 µM. The Ratio Ki in test [2] was above 61.

Consider `C[C@H](CC(F)(F)F)NCc1ccc(-c2nccs2)cc1`, for which the values for the Ki in test [1] and in test [3] were 393 µM and 52.3 µM, respectively. Also, the Ratio Ki in test [2] stood at 7.5.

As to `CC1(NCc2cc3ccccc3s2)COC1`, the Ki in test [1] and in test [3] was above 1000 µM in each case. Moreover, in test [2], the Ratio Ki is above 10.

As for `COc1ccc2c(c1)c(CCNCCCc1cccc(C(F)(F)F)c1)cn2C`, the Ki in test [1] was determined as 25 µM; in test [3], 10.4 µM. Also, in test [2], the Ratio Ki was 2.4.

For the molecule `COc1ccc2c(c1)c(CCNCCCc1ccc(Cl)cc1)cn2C`, the Ki in test [1] stood at 3.9 µM; in test [3] it was 0.52 µM. Besides, the Ratio Ki in test [2] stood at 7.5.

Regarding `COc1ccc2c(c1)c(CCN)cn2C`, the Ki in test [1] stood at 36.2 µM; in test [3], 20.4 µM. Moreover, the Ratio Ki in test [2] was 1.8.

In the case of `Cc1ccccc1C(C)NCc1ccc(-c2ncccn2)cc1` (centres undefined), the Ki in test [1] is 268 µM; in test [3], 4.39 µM. The Ratio Ki in test [2] amounted to 61.

As to `COc1ccc2c(c1)c(CCNCc1cc(OC(F)(F)F)ccc1F)cn2C`, the Ki amounted to 83.8 µM in test [1] and 80.4 µM in test [3]. The Ratio Ki in test [2] amounted to 1.

In the case of `CNCc1cc2ccccc2s1`, the Ki in test [1] came out at 373 µM; in test [3] it was 43.2 µM. Besides, in test [2], the Ratio Ki came to 8.6.

On to `NCc1ccc(-c2ncccn2)cc1`, for which the Ki is above 1000 µM in test [1] and 78.1 µM in test [3]. Also, the Ratio Ki in test [2] was above 91.

With `CNCc1ccc(-c2nccs2)cc1`, the Ki in test [1] is 365 µM; in test [3], 33.5 µM. In test [2], the Ratio Ki was found to be 11.

For `OCC(NCc1ccc(-c2nccs2)cc1)c1ccco1` (centres undefined), the values for the Ki in test [1] and in test [3] were above 1000 µM and 95.4 µM, respectively. Besides, the Ratio Ki in test [2] is above 51.
